{"source": "patent US12655091B2", "about": "“N-benzyl-alpha-aminoamides as anaphase-promoting complex/cyclosome (APC/C) inhibitors” (CONSEJO SUPERIOR DE INVESTIGACIONES CIENTÍFICAS (CSIC), priority 2020, dated 2026)", "key": {"[1]": {"target": "T1, APC/C activation by Cdc20 (Homo sapiens, UniProt Q12834)", "T1 construct": "endogenous in cells; the method paragraph speaks of HeLa cells", "T1 sequence (Q12834 whole entry)": "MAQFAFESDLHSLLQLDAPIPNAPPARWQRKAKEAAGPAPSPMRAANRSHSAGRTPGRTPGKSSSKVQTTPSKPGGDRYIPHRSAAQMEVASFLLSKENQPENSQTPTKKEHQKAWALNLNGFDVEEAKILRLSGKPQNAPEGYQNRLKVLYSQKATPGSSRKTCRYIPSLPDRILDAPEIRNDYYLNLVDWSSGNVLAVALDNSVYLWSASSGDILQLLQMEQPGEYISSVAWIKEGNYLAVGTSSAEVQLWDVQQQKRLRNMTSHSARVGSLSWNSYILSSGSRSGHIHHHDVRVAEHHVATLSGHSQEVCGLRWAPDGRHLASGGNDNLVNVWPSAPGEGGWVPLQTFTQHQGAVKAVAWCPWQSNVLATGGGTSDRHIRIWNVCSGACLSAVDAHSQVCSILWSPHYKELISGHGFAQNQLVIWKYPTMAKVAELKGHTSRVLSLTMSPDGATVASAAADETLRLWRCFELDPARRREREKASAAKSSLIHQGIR", "test": "Western blot of Cyclin B1 levels (inhibition of APC/C activation by Cdc20)", "assay_type": "cell-based", "details": "HCC-38 cells, FIG. 9", "protocol": "FIG. 9. […] Consequently, non-ubiquitylated Cyclin B escapes degradation by the proteasome. […] HCC-38 cells at a density of 200,000 cells per well were used in this study.\nThe entirety of the following procedure was carried out under aseptic conditions. HeLa cells were counted and seeded into clear bottom 6-well plates (Greiner Bio-One) at a density of 200,000 cells/well in a volume of 2 ml and placed in an incubator (37° C., 5% CO2) overnight. The following day medium was aspired and 1.5 ml of treatment was added to wells. Cells were treated with controls (medium alone) and compounds. All stock solutions of the small compounds were prepared by resuspension of the solid in DSMO, then diluted in medium to the final concentrations being tested. The effect of these compounds on mitosis was analysed by measuring Cyclin B1 levels, a downstream target of APC/C-Cdc20. Cells were incubated and had 24 hours treatment exposure. Plates were then placed on ice and solution from each well was aspired. […]"}, "[2]": {"test": "Kinetic solubility, turbidimetric method", "assay_type": "physicochemical", "protocol": "Kinetic solubility. This is a valuable initial screen that was carried out prior to starting ADME test in order to identify potential issues and to determine appropriate concentration ranges. Kinetic solubility was measured using a turbidimetric method."}, "[3]": {"test": "Intestinal permeability assay in Caco-2 cells", "assay_type": "in vitro ADME, human", "details": "human", "protocol": "(§1) This was determined using an intestinal permeability assay in Caco-2 cells, a human colorectal adenocarcinoma cell line (see FIG. 4)."}, "Caco-2 cells": {"test_system": "Caco-2 cells", "test": "Intestinal permeability assay in Caco-2 cells", "assay_type": "in vitro ADME, human", "protocol": "as §1"}, "[4]": {"test": "Metabolic stability test (liver microsomes)", "assay_type": "in vitro ADME, Human", "source_text": "The liver is the major drug metabolising organ for the large majority of pharmaceutical drugs. A good in vitro model to investigate drug metabolism is based on the use of microsomes, a subcellular fraction of the liver."}, "CYP3A4": {"target": "CYP3A4 (Homo sapiens, UniProt P08684)", "sequence (P08684 whole entry, canonical isoform)": "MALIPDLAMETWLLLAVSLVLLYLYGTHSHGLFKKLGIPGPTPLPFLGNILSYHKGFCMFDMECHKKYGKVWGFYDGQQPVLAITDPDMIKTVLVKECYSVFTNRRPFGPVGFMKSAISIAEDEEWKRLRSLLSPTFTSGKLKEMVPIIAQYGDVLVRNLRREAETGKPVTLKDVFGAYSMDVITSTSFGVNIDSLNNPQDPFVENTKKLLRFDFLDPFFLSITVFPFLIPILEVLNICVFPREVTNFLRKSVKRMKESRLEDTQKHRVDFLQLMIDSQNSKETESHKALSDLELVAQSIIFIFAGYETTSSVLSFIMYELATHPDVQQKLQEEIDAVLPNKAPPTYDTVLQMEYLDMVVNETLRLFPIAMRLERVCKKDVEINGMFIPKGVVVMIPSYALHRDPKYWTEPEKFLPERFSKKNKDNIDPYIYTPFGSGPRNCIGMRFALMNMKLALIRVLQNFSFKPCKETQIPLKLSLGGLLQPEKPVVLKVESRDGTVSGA", "test": "Cytochrome P450 inhibition IC50 determination (isoform CYP3A4)", "assay_type": "in vitro ADME", "details": "for inhibition at 0.1 µM / inhibition at 0.25 µM / inhibition at 1 µM / inhibition at 2.5 µM / inhibition at 10 µM / inhibition at 25 µM: human; for inhibition at 0.1 µM: CYP3A4, 0.1 μM; for inhibition at 0.25 µM: CYP3A4, 0.25 μM; for inhibition at 1 µM: CYP3A4, 1 μM; for inhibition at 2.5 µM: CYP3A4, 2.5 μM; for inhibition at 10 µM: CYP3A4, 10 μM; for inhibition at 25 µM: CYP3A4, 25 μM", "source_text": "Two thirds of drugs cleared by metabolism are metabolised at least in part by the cytochrome P450 (CYP) enzymes with the isoform CYP3A4 accounting for almost 50% of all CYP activity. For this reason, we tested whether CYP3A4 is implicated in the clearance of o-TFB-Tyr. […]"}, "[5]": {"test": "Plasma protein binding assay (human)", "assay_type": "in vitro ADME", "details": "plasma spiked 1 side; for fraction unbound: plasma", "source_text": "(§2) Non-specific plasma protein binding can greatly affect the extent of free drug concentration which may influence the lead compound's subsequent inhibitory potential (see table 6 below)."}, "plasma protein [6]": {"test_system": "plasma protein", "test": "Plasma protein binding assay (human)", "assay_type": "in vitro ADME", "source_text": "as §2"}, "[7]": {"test": "Plasma protein binding assay (mouse)", "assay_type": "in vitro ADME", "details": "plasma spiked 1 side; for fraction unbound: plasma", "source_text": "as §2"}, "plasma protein [8]": {"test_system": "plasma protein", "test": "Plasma protein binding assay (mouse)", "assay_type": "in vitro ADME", "source_text": "as §2"}, "HeLa cells": {"test_system": "HeLa cells", "test": "MTT cytotoxicity assay in HeLa cells", "assay_type": "cell-based", "protocol": "The entirety of the following protocol was carried out under aseptic conditions. HeLa cells were cultured in Dulbecco's Modified Eagle's Medium (DMEM) supplemented with 10% Fetal Bovine Serum (FBS) (Sigma F7524). Cells were counted and seeded into clear bottom 96-well plates (Greiner Bio-One) at density 6,000 cells/well. 100 μl of cells were added to each well and placed in the incubator overnight. The following day medium was aspired and 100 μL of treatment was added to wells. Cells were treated with controls (medium alone, Reversine 5 μM, Apcin 25 μM). […]\nIn vitro cytotoxic analysis involved quantitative measurements of cell proliferation and the subsequent assessment of the relative toxicity of the compounds. (3-(4,5-Dimethylthiazol-2-yl)-2,5-Diphenyltertrazolium Bromide (MTT) is a widely utilised cytotoxic assay that measures cellular metabolic activity as an indicator for cell viability, proliferation and cytotoxicity from the reduction of water soluble yellow tetrazole MTT to insoluble purple formazan crystals by mitochondrial dehydrogenases. The insoluble purple crystalline product was dissolved in DMSO and the resulting coloured solution quantified by measuring the absorbance (570 nm). Reduction can only occur when mitochondrial reductive enzymes are active, thus a direct correlation to the number of viable cells. […]"}, "[9]": {"test_system": "HCC-38 triple negative breast cancer cells", "test": "Clonogenic assay of HCC-38 cells", "assay_type": "cell-based", "details": "HCC-38, 24 hours treatment, stained after 12 days, FIG. 7", "protocol": "FIG. 7. Clonogenic assay of HCC-38 cells treated with DMSO (1.2% v/v), the Mps1 kinase inhibitor Reversine, the Cdc20 binder Apcin and compound o-TFB-Tyr. The clones were stained after 12 days incubation at 37 Celsius. Following treatment of the HCC38 cells with the compounds for 24 hours, the medium was exchanged every 48 hrs.\nThe entirety of the following procedure was carried out under aseptic conditions. HeLa cells were counted and seeded into clear bottom 6-well plates (Greiner Bio-One) at density 500 cells/well (250 cells/ml). 2 ml of cells were added to each well and placed in the incubator (37° C., 5% CO2) overnight. The following day medium was aspired and 1.5 ml of treatment was added to wells. Cells were treated with control (medium alone) and compounds. All stock solutions of compounds were prepared by resuspension of the solid in DMSO, then diluted in medium to the final concentrations being tested. HeLa cells viability was measured using clonogenic assay, a cell survival-based assay that determines cell reproductive death after treatment with cytotoxic agents. Cells were incubated and had 72 hours treatment exposure. […]\nEach well of the clonogenic assay was then scanned using an Axiozoom Zeiss Axioplan fluorescence microscope equipped for DIC imaging and fluorescence imaging and analysed using the ImageJ2 image-processing software (Fiji). […]"}, "[10]": {"details": "kinetic solubility, turbidimetric"}, "[11]": {"details": "probe testosterone, read-out: % inhibition with substrate testosterone"}, "[12]": {"details": "read-out: % inhibition with substrate midazolam"}, "[13]": {"details": "read-out: Fraction unbound Replicate 1"}, "[14]": {"details": "read-out: Fraction unbound Replicate 2"}, "[15]": {"details": "read-out: Fraction unbound Replicate 3"}, "[16]": {"details": "read-out: Mean fraction unbound"}}, "note": "Values joined by “and” are separate entries in the source; they are usually repeats but may differ in a detail not shown here. Equal values may be shown once. “Also recorded” adds a separate entry of the source. Read-outs that look alike come from different tables or passages of the source."}
{"smiles": "Cc1ncc([N+](=O)[O-])n1CCOC(=O)NC(Nc1ncccn1)C(Cl)(Cl)Cl", "note": "(stereo not shown) [Apcin, reference compound]", "values": [{"measurement": "Inhibition of Cyclin B ubiquitylation by APC/C / APC/C activation by Cdc20", "setting": "[1]", "result": "comparatively less effective than compound o-TFB-Tyr"}]}
{"smiles": "N[C@@H](Cc1ccc(O)cc1)C(=O)NCc1ccccc1C(F)(F)F", "note": "[o-TFB-Tyr, (2S)-2-amino-N-[2-(trifluoromethyl)benzyl]-3-[4-(hydroxy)phenyl]propanamide]", "values": [{"measurement": "Solubility in aqueous solutions", "setting": "[2]", "result": "readily soluble in aqueous solutions"}, {"measurement": "Estimated Precipitation Range, Calculated mid-range", "setting": "[2]; [10]", "result": ">100", "unit": "µM"}, {"measurement": "Estimated Precipitation Range, Lower bound", "setting": "[2]; [10]", "result": 100, "unit": "µM"}, {"measurement": "Estimated Precipitation Range, Upper bound", "setting": "[2]; [10]", "result": ">100", "unit": "µM"}, {"measurement": "recovery", "setting": "[3]; Caco-2, Caco2, A to B, read-out: Direction A to B Mean % recovery", "result": 62.8, "unit": "%"}, {"measurement": "recovery", "setting": "[3]; Caco-2, Caco2, B to A, read-out: Direction B to A Mean % recovery", "result": 88.9, "unit": "%"}, {"measurement": "efflux ratio", "setting": "[3]; Caco-2, Caco2, read-out: Efflux ratio (Mean Papp B to A/Mean Papp A to B)", "result": 0.862}, {"measurement": "Active transport by membrane proteins such as ABC transporters", "setting": "Caco-2 cells; Caco2", "result": "not actively transported"}, {"measurement": "Diffusion across the membrane", "setting": "Caco-2 cells; Caco2", "result": "diffuses freely across the semipermeable membrane in both directions"}, {"measurement": "Direction A to B Mean Papp", "setting": "Caco-2 cells; Caco2, A to B", "result": 22.1, "unit": "×10⁻⁶ cm/s"}, {"measurement": "Direction B to A Mean Papp", "setting": "Caco-2 cells; Caco2, B to A", "result": 19.1, "unit": "×10⁻⁶ cm/s"}, {"measurement": "Metabolic stability", "setting": "[4]; Human microsomes", "result": "stable"}, {"measurement": "Compound remaining (% of 0 min)", "setting": "[4]; Human, 0 min", "result": "100 % of 0 min"}, {"measurement": "Compound remaining (% of 0 min)", "setting": "[4]; Human, 5 min", "result": "107 % of 0 min"}, {"measurement": "Compound remaining (% of 0 min)", "setting": "[4]; Human, 15 min", "result": "43.7 % of 0 min"}, {"measurement": "Compound remaining (% of 0 min)", "setting": "[4]; Human, 30 min", "result": "19.3 % of 0 min"}, {"measurement": "Compound remaining (% of 0 min)", "setting": "[4]; Human, 45 min", "result": "8 % of 0 min and 8.23 % of 0 min"}, {"measurement": "Compound remaining (% of 0 min), Control", "setting": "[4]; Human, Control incubation", "result": "89.8 % of 0 min"}, {"measurement": "IC50 compared with control compounds", "setting": "CYP3A4; CYP3A4, midazolam and testosterone as substrates", "result": "much higher than that of controls compounds"}, {"measurement": "inhibition at 0.1 µM", "setting": "CYP3A4; [11]", "result": -0.99, "unit": "%"}, {"measurement": "inhibition at 0.25 µM", "setting": "CYP3A4; [11]", "result": 0.136, "unit": "%"}, {"measurement": "inhibition at 1 µM", "setting": "CYP3A4; [11]", "result": 4.21, "unit": "%"}, {"measurement": "inhibition at 2.5 µM", "setting": "CYP3A4; [11]", "result": 49, "unit": "%"}, {"measurement": "inhibition at 10 µM", "setting": "CYP3A4; [11]", "result": 77.3, "unit": "%"}, {"measurement": "inhibition at 25 µM", "setting": "CYP3A4; [11]", "result": 89.5, "unit": "%"}, {"measurement": "inhibition at 0.1 µM", "setting": "CYP3A4; [12]", "result": 13.7, "unit": "%"}, {"measurement": "inhibition at 0.25 µM", "setting": "CYP3A4; [12]", "result": 22.5, "unit": "%"}, {"measurement": "inhibition at 1 µM", "setting": "CYP3A4; [12]", "result": 47.5, "unit": "%"}, {"measurement": "inhibition at 2.5 µM", "setting": "CYP3A4; [12]", "result": 65.6, "unit": "%"}, {"measurement": "inhibition at 10 µM", "setting": "CYP3A4; [12]", "result": 84.4, "unit": "%"}, {"measurement": "inhibition at 25 µM", "setting": "CYP3A4; [12]", "result": 91.1, "unit": "%"}, {"measurement": "recovery", "setting": "[5]", "result": 101, "unit": "%"}, {"measurement": "fraction unbound", "setting": "[5]; [13]", "result": 0.352}, {"measurement": "fraction unbound", "setting": "[5]; [14]", "result": 0.328}, {"measurement": "fraction unbound", "setting": "[5]; [15]", "result": 0.304}, {"measurement": "fraction unbound", "setting": "[5]; [16]", "result": 0.328}, {"measurement": "Non-specific plasma protein binding", "setting": "plasma protein [6]", "result": "absence of non-specific plasma protein binding"}, {"measurement": "recovery", "setting": "[7]", "result": 102, "unit": "%"}, {"measurement": "fraction unbound", "setting": "[7]; [13]", "result": 0.28}, {"measurement": "fraction unbound", "setting": "[7]; [14]", "result": 0.28}, {"measurement": "fraction unbound", "setting": "[7]; [15]", "result": 0.301}, {"measurement": "fraction unbound", "setting": "[7]; [16]", "result": 0.287}, {"measurement": "Non-specific plasma protein binding", "setting": "plasma protein [8]", "result": "absence of non-specific plasma protein binding"}, {"measurement": "Relative cytotoxicity compared with other compounds", "setting": "HeLa cells; MTT, FIGS. 5 and 6", "result": "higher cytotoxic effect"}, {"measurement": "Cytotoxic activity, concentration range", "setting": "HeLa cells; cytotoxicity and clonogenic studies", "result": "200 to 10", "unit": "μM"}, {"measurement": "Number of clones", "setting": "[9]", "result": "lower number of triple negative breast cancer cell clones"}, {"measurement": "Inhibition of Cyclin B ubiquitylation by APC/C / APC/C activation by Cdc20", "setting": "[1]", "result": "confirmed the inhibitory effect of this compound on APC/C activation by Cdc20; also recorded: confirmed the inhibition of APC/C activation by Cdc20; also recorded: causes inhibition of Cyclin B ubiquitylation by APC/C"}]}
{"smiles": "c1nc2nc(Nc3ccc(N4CCOCC4)cc3)nc(NC3CCCCC3)c2[nH]1", "note": "[Reversine, reference compound]", "values": [{"measurement": "Number of clones", "setting": "[9]", "result": "lower number of triple negative breast cancer cell clones"}]}
